This is an account of results in patent publication US12540141B2, “Spiropyrrolidine derived antiviral agents” (priority 2020, dated 2026).

The test concerns the target SARS-CoV-2 3CL-protease (Severe acute respiratory syndrome coronavirus 2, UniProt P0DTD1). Briefly: SARS-CoV-2 3C-Like (3CL) Protease Fluorescence Assay (FRET). Type of test: biochemical. To be noted: SARS-CoV-2 3CL-protease 10 nM, 30 min preincubation at RT, substrate 40 μM.

A word on the IC50: it is the point on the concentration scale where inhibition reaches its midpoint. Lower therefore signals greater potency in that assay. `[2H]C([2H])([2H])N(C(=O)c1cn(CC(F)(F)F)nc1C1CC1)[C@@H](CC1CC1)C(=O)N1C[C@]2(C[C@H]1C#N)C(=O)Nc1ccccc12` [Example 401] showed a 50% inhibitory concentration (IC50) of less than 100 nM.

Molecule `CN(C(=O)c1cn(C(C)(C)C)nn1)[C@@H](CC1CC1)C(=O)N1C[C@]2(C[C@H]1C#N)C(=O)Nc1ccccc12` [Example 402] gave a 50% inhibitory concentration (IC50) of less than 100 nM. In the case of `CN(C(=O)c1cnn(-c2ccc(F)cc2)c1)[C@@H](CC1CC1)C(=O)N1C[C@]2(C[C@H]1C#N)C(=O)Nc1ccccc12` [Example 405], the IC50 was less than 100 nM. In the case of `CN(C(=O)c1cnn(-c2ccc(C(F)(F)F)cc2)c1)[C@@H](CC1CC1)C(=O)N1C[C@]2(C[C@H]1C#N)C(=O)Nc1ccccc12` [Example 406], the IC50 is less than 100 nM. `CN(C(=O)c1cnc(C(F)(F)F)[nH]1)[C@@H](CC1CC1)C(=O)N1C[C@]2(C[C@H]1C#N)C(=O)Nc1ccccc12` [Example 407] yielded an IC50 of less than 100 nM. As for `CCCC[C@@H](C(=O)N1C[C@]2(C[C@H]1C#N)C(=O)Nc1ccccc12)N(C)C(=O)c1cnn(C(C)(C)C)c1` [Example 408], the figure is less than 100 nM; as for `CN(C(=O)c1cnn(C(C)(C)C)c1Cl)[C@@H](CC1CC1)C(=O)N1C[C@]2(C[C@H]1C#N)C(=O)Nc1ccccc12` [Example 409], less than 100 nM; as for `CN(C(=O)c1cnc(C(C)(C)C)[nH]1)[C@@H](CC1CC1)C(=O)N1C[C@]2(C[C@H]1C#N)C(=O)Nc1ccccc12` [Example 410], less than 100 nM. `CN(C(=O)c1cnn(C2CCCCC2)c1)[C@@H](CC1CC1)C(=O)N1C[C@]2(C[C@H]1C#N)C(=O)Nc1ccccc12` [Example 411] came in with a half-maximal inhibitory concentration (IC50) of less than 100 nM. Turning to `CN(C(=O)c1cc2c(F)cc(F)c(F)c2[nH]1)[C@@H](CCC(C)(C)C)C(=O)N1C[C@]2(C[C@H]1C#N)C(=O)Nc1ccccc12` [Example 412], the IC50 is less than 100 nM. As to `CCCOC[C@@H](C(=O)N1C[C@]2(C[C@H]1C#N)C(=O)Nc1ccccc12)N(C)C(=O)c1cc2c(F)cc(F)cc2[nH]1` [Example 413, N—((S)-1-((3R,5′S)-5′-cyano-2-oxospiro[indoline-3,3′-pyrrolidin]-1′-yl)-1-oxo-3-propoxypropan-2-yl)-4,6-difluoro-N-methyl-1H-indole-2-carboxamide], the IC50 is less than 100 nM. Molecule `CN(C(=O)[C@H](O)C(C)(C)C)[C@@H](CC1CC1)C(=O)N1C[C@]2(C[C@H]1C#N)C(=O)Nc1ccccc12` [Example 417] registered a 50% inhibitory concentration (IC50) of less than 100 nM. With `CCCC[C@H](NC(=O)[C@@H](O)c1ccc(F)cc1)C(=O)N1C[C@]2(C[C@H]1C#N)C(=O)Nc1ccccc12` [Example 418], the IC50 was less than 100 nM.

As to `CCCC[C@H](NC(=O)[C@H](O)c1ccc(F)cc1)C(=O)N1C[C@]2(C[C@H]1C#N)C(=O)Nc1ccccc12` [Example 419], the concentration for half-maximal inhibition (IC50) was less than 100 nM. With `CN(C(=O)[C@H](O)Cc1ccc(F)cc1)[C@@H](CC1CC1)C(=O)N1C[C@]2(C[C@H]1C#N)C(=O)Nc1ccccc12` [Example 423], the half-inhibitory concentration (IC50) is less than 100 nM. Under `CC(C)C[C@@H](O)C(=O)N(C)[C@@H](CC1CC1)C(=O)N1C[C@]2(C[C@H]1C#N)C(=O)Nc1ccccc12` [Example 424] stands less than 100 nM; under `CN(C(=O)[C@H](O)c1ccccc1F)[C@@H](CC1CC1)C(=O)N1C[C@]2(C[C@H]1C#N)C(=O)Nc1ccccc12` [Example 425], less than 100 nM. In turn, `CN(C(=O)[C@H](O)c1ccccc1Cl)[C@@H](CC1CC1)C(=O)N1C[C@]2(C[C@H]1C#N)C(=O)Nc1ccccc12` [Example 426] gave an IC50 of less than 100 nM. Regarding `[2H]C([2H])([2H])N(C(=O)[C@@H](O)c1ccccc1)[C@@H](CC(C)(C)C)C(=O)N1C[C@]2(C[C@H]1C#N)C(=O)Nc1ccccc12` [Example 427], the half-maximal inhibitory concentration (IC50) is less than 100 nM. `[2H]C([2H])([2H])N(C(=O)[C@H](O)c1ccccc1)[C@@H](CC(C)(C)C)C(=O)N1C[C@]2(C[C@H]1C#N)C(=O)Nc1ccccc12` [Example 428] gave a concentration for half-maximal inhibition (IC50) of less than 100 nM. The molecule `COc1ccc(CN(C(=O)C(F)(F)F)[C@@H](CC(C)C)C(=O)N2C[C@]3(C[C@H]2C#N)C(=O)Nc2ccccc23)cc1` [Example 429] registered an IC50 of more than 1000 nM. In the case of `COc1cccc(CN(C(=O)C(F)(F)F)[C@@H](CC(C)C)C(=O)N2C[C@]3(C[C@H]2C#N)C(=O)Nc2ccccc23)c1` [Example 430], the IC50 is more than 1000 nM. `COc1ccccc1CN(C(=O)C(F)(F)F)[C@@H](CC(C)C)C(=O)N1C[C@]2(C[C@H]1C#N)C(=O)Nc1ccccc12` [Example 431] displayed a 50% inhibitory concentration (IC50) of more than 1000 nM. In turn, `CC(C)C[C@@H](C(=O)N1C[C@]2(C[C@H]1C#N)C(=O)Nc1ccccc12)N(C(=O)C(F)(F)F)C(C)C` [Example 432] showed a half-inhibitory concentration (IC50) of more than 1000 nM. `CC(C)C[C@@H](C(=O)N1C[C@]2(C[C@H]1C#N)C(=O)Nc1ccccc12)N(C)C(=O)NCc1ccccc1` [Example 433] had a 50% inhibitory concentration (IC50) of less than 100 nM. Under `CC(C)C[C@@H](C(=O)N1C[C@]2(C[C@H]1C#N)C(=O)Nc1ccccc12)N(C)C(=O)N1Cc2cn[nH]c2C1` [Example 434] stands 100 to 1000 nM; under `CC(C)(C)C[C@H](NC(=O)Nc1ccccc1)C(=O)N1C[C@]2(C[C@H]1C#N)C(=O)Nc1ccccc12` [Example 435], 100 to 1000 nM. As for `CC(C)(C)C[C@H](NC(=O)Nc1ccc(F)cc1F)C(=O)N1C[C@]2(C[C@H]1C#N)C(=O)Nc1ccccc12` [Example 436], the figure is 100 to 1000 nM. Turning to `CC(C)(C)C[C@H](NC(=O)Nc1c(F)cccc1F)C(=O)N1C[C@]2(C[C@H]1C#N)C(=O)Nc1ccccc12` [Example 437], the IC50 lay in the range of 100 to 1000 nM. `Cc1cccc(C)c1NC(=O)N[C@@H](CC(C)(C)C)C(=O)N1C[C@]2(C[C@H]1C#N)C(=O)Nc1ccccc12` [Example 438] returned an IC50 of 100 to 1000 nM. For the molecule `CC(C)(C)C[C@H](NC(=O)Nc1ccc2ccccc2c1)C(=O)N1C[C@]2(C[C@H]1C#N)C(=O)Nc1ccccc12` [Example 439], the concentration for half-maximal inhibition (IC50) is 100 to 1000 nM. As for `CC(C)(C)C[C@H](NC(=O)NC1CCCCC1)C(=O)N1C[C@]2(C[C@H]1C#N)C(=O)Nc1ccccc12` [Example 440], the figure is less than 100 nM; as for `CC(C)(C)C[C@H](NC(=O)Nc1ccc(F)cc1)C(=O)N1C[C@]2(C[C@H]1C#N)C(=O)Nc1ccccc12` [Example 441], 100 to 1000 nM; as for `CC(=O)C[C@@H](C(=O)N1C[C@]2(C[C@H]1C#N)C(=O)Nc1ccccc12)N(C)C(=O)c1cc2c(F)cc(F)cc2[nH]1` [Example 442], less than 100 nM. On to `CN(C(=O)c1cc2c(F)cc(F)cc2[nH]1)[C@@H](CC(C)(C)O)C(=O)N1C[C@]2(C[C@H]1C#N)C(=O)Nc1ccccc12` [Example 443], for which the IC50 was in the range of 100 to 1000 nM.

In turn, `CN(C(=O)c1cc2c(F)cc(F)c(F)c2[nH]1)[C@@H](CC(C)(C)O)C(=O)N1C[C@]2(C[C@H]1C#N)C(=O)Nc1ccccc12` [Example 444] gave an IC50 of 100 to 1000 nM.

Consider `CC(C)(F)C[C@H](NC(=O)COc1ccc(F)cc1F)C(=O)N1C[C@]2(C[C@H]1C#N)C(=O)Nc1ccc(Cl)cc12` [Example 445], for which the IC50 was 100 to 1000 nM. Under `CC(C)(F)C[C@H](NC(=O)c1cc2ccccn2n1)C(=O)N1C[C@]2(C[C@H]1C#N)C(=O)Nc1ccc(Cl)cc12` [Example 446] stands 100 to 1000 nM; under `CC(C)(F)C[C@H](NC(=O)c1cccc(OC(F)(F)F)c1)C(=O)N1C[C@]2(C[C@H]1C#N)C(=O)Nc1ccc(Cl)cc12` [Example 447], less than 100 nM. As to `CC(C)(C)C[C@H](NC(=O)c1cc2c(F)cc(F)cc2[nH]1)C(=O)N1C[C@]2(C[C@H]1C#N)C(=O)Nc1ccc(Cl)cc12` [Example 448], the half-maximal inhibitory concentration (IC50) is less than 100 nM. Molecule `CC(C)(F)C[C@H](NC(=O)c1ccc(F)cc1F)C(=O)N1C[C@]2(C[C@H]1C#N)C(=O)Nc1ccc(Cl)cc12` [Example 449] displayed a 50% inhibitory concentration (IC50) of 100 to 1000 nM. As for `CC(C)(C)C[C@H](NC(=O)c1cc2c(Cl)cccc2[nH]1)C(=O)N1C[C@]2(C[C@H]1C#N)C(=O)Nc1ccc(Cl)cc12` [Example 450], the figure is less than 100 nM. Under `N#C[C@@H]1C[C@@]2(CN1C(=O)[C@H](Cc1ccccc1F)NC(=O)c1cc3c(F)cc(F)cc3[nH]1)C(=O)Nc1ccc(Cl)cc12` [Example 451] stands less than 100 nM; under `N#C[C@@H]1C[C@@]2(CN1C(=O)[C@H](Cc1ccc(F)cc1)NC(=O)c1cc3c(F)cc(F)cc3[nH]1)C(=O)Nc1ccc(Cl)cc12` [Example 452], less than 100 nM. As for `N#C[C@@H]1C[C@@]2(CN1C(=O)[C@H](CC1CC1)NC(=O)c1cc3c(F)cc(F)cc3[nH]1)C(=O)Nc1ccc(Cl)cc12` [Example 453], the IC50 was less than 100 nM. With `[2H]C([2H])([2H])N(C(=O)c1cc2c(F)cc(F)cc2[nH]1)[C@@H](CC(C)(C)F)C(=O)N1C[C@]2(C[C@H]1C#N)C(=O)Nc1ccc(Cl)cc12` [Example 454], the IC50 is less than 100 nM. Under `CN(C(=O)c1cc2c(F)cc(F)cc2[nH]1)[C@@H](CC(C)(C)F)C(=O)N1C[C@]2(C[C@H]1C#N)C(=O)Nc1ccc(Cl)cc12` [Example 455] stands less than 100 nM; under `CN(C(=O)c1cc2ncccc2[nH]1)[C@@H](CC1CC1)C(=O)N1C[C@]2(C[C@H]1C#N)C(=O)Nc1ccc(Cl)cc12` [Example 456], less than 100 nM. With `CN(C(=O)c1cc2cnccc2[nH]1)[C@@H](CC1CC1)C(=O)N1C[C@]2(C[C@H]1C#N)C(=O)Nc1ccc(Cl)cc12` [Example 457], the half-inhibitory concentration (IC50) is less than 100 nM. Consider `CN(C(=O)c1cc2ccncc2[nH]1)[C@@H](CC1CC1)C(=O)N1C[C@]2(C[C@H]1C#N)C(=O)Nc1ccc(Cl)cc12` [Example 458], for which the IC50 was less than 100 nM. As to `CN(C(=O)c1cc2cccnc2[nH]1)[C@@H](CC1CC1)C(=O)N1C[C@]2(C[C@H]1C#N)C(=O)Nc1ccc(Cl)cc12` [Example 459], the IC50 was less than 100 nM. As to `Cc1ccnc2[nH]c(C(=O)N(C)[C@@H](CC3CC3)C(=O)N3C[C@]4(C[C@H]3C#N)C(=O)Nc3ccc(Cl)cc34)cc12` [Example 460], the concentration for half-maximal inhibition (IC50) was less than 100 nM.

Turning to `Cc1cnc2[nH]c(C(=O)N(C)[C@@H](CC3CC3)C(=O)N3C[C@]4(C[C@H]3C#N)C(=O)Nc3ccc(Cl)cc34)cc2c1` [Example 461], the IC50 is less than 100 nM. Turning to `Cc1ccc2cc(C(=O)N(C)[C@@H](CC3CC3)C(=O)N3C[C@]4(C[C@H]3C#N)C(=O)Nc3ccc(Cl)cc34)[nH]c2n1` [Example 462], the IC50 is less than 100 nM.
